Paper PMC11571207, “Stereorandomized Oncocins with Preserved Ribosome Binding and Antibacterial Activity” (Journal of Medicinal Chemistry, 2024)
Where two headings read alike, the source gives them in different places.

Experiments:
[1] = tested on: P. aeruginosa PA14 4.18 (pmrB); details: for MIC P. aeruginosa PA14 4.18: supplement CSV
K. pneumoniae OXA-48 = assay: microbe, parasite or virus in culture; details: for MIC K. pneumoniae OXA-48: supplement CSV
Protocol: (§1) Minimum inhibitory concentration assay
(§2) Antimicrobial activity was assayed against P. aeruginosa PAO1, K. pneumoniae NCTC418, E. coli W3110, A. baumannii ATCC 19606, methicillin-resistant S. aureus COL (MRSA), and for selected peptides on P. aeruginosa PA14 and the polymyxin-B-resistant derivative PA14 2P4, as well as the clinical isolates ZEM-1A and ZEM9A, K. pneumoniae OXA-48, S. aureus Newman, Enterobacter cloacae and Burkholderia cenocepacia. The minimal inhibitory concentration (MIC) was determined by using broth microdilution method. A colo ny of bacteria was picked and grown in Luria-Bertani (LB) medium overnight at 37°C. For E. coli BW25113 sbmA::kan the medium was supplemented with 25 mg/L of kanamycin. The next day, the culture was then regrown in LB medium to log phase (OD600 = 0.6 to 0.8), which lasted approximately 4 h, and diluted to an OD600 of 0.022 in the desired medium. Stock solutions of 1 mg/mL of the samples were prepared in sterilized milliQ water and diluted to the beginning concentration of 64 μg/mL in 300 μL Mueller Hinton (MH)-medium. The diluted samples were added to first well of 96-well microtiter plate (TPP, untreated, Faust Laborbedarf, AG, Schaffhausen) and diluted serially by ½. Finally, 4 μL of the bacterial suspension was inoculated into the sample solutions (150 μL/well) with a final inoculation of about 5∙10^5 CFU/mL. The plates were then incubated at 37°C for 15-18h. For each assay, sterility (broth only) and growth control (broth with bacterial inoculum, without antibiotics) were checked with two columns in the plate. The next day, 15 μL of 3-(4,5-dimethylthiazol-2-yl)-2,5-diphenyltetrazolium bromide (MTT) was added to each well of the plate, such a way that MIC was defined as the lowest concentration of the peptide that inhibited visible growth of the tested

E. cloacae = assay: microbe, parasite or virus in culture
Protocol: as §1, §2

[2] = tested on: P. aeruginosa PA14 2P4 (pmrB); assay: microbe, parasite or virus in culture; details: for MIC P. aeruginosa PA14 2P4: supplement CSV
Protocol: as §1, §2

P. aeruginosa PA14 = assay: microbe, parasite or virus in culture; details: for MIC P. aeruginosa PA14: supplement CSV
Protocol: as §1, §2

P. aeruginosa ZEM9A = assay: microbe, parasite or virus in culture; details: for MIC P. aeruginosa ZEM9A: supplement CSV
Protocol: as §1, §2

P. aeruginosa ZEM-1A = assay: microbe, parasite or virus in culture; details: for MIC P. aeruginosa ZEM-1A: supplement CSV
Protocol: as §1, §2

[3] = tested on: P. aeruginosa PA14 4.13 (phoQ); details: for MIC P. aeruginosa PA14 4.13: supplement CSV
K. pneumoniae NCTC 418 = assay: microbe, parasite or virus in culture; details: for MIC K. pneumoniae NCTC418: supplement CSV
Method in brief: (§3)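 Read-out was visible growth after MTT addition, the MIC being the lowest inhibitory peptide concentration. Bacteria grown to log phase in LB were exposed in MH medium to peptide from 64 μg/mL in twofold dilutions for 15-18h at 37°C.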

P. aeruginosa PAO1 = assay: microbe, parasite or virus in culture; details: for MIC P. aeruginosa PAO1: supplement CSV
Method in brief: as §3

E. coli W3110 = assay: microbe, parasite or virus in culture; details: for MIC E. coli W3110: supplement CSV
Method in brief: as §3

A. baumannii ATCC19606 = assay: microbe, parasite or virus in culture; details: for MIC A. baumannii ATCC19606: supplement CSV
Method in brief: as §3

S. aureus COL (MRSA) = assay: microbe, parasite or virus in culture; details: for MIC S. aureus COL (MRSA): supplement CSV
Method in brief: as §3

[4] = polymyxin B resistant strain, 12.5% MHB pH 7.4, 16–20 h at 37 °C
[5] = polymyxin B resistant strain, full MHB pH 7.4, 16–20 h at 37 °C

In the case of polymyxin B [PMB, reference compound], the “MIC P. aeruginosa PA14 4.18 (pmrB), 12.5% MHB” value [1, 4] is reported as 1 µg/mL, the “MIC P. aeruginosa PA14 4.18 (pmrB), full MHB” value [1, 5] is reported as 2 µg/mL and the “MIC P. aeruginosa PA14 4.18” value ([1]; 12.5% MH pH 7.4) is reported as 1 µg/mL. For the same substance, the “MIC P. aeruginosa PA14 4.18” value ([1]; full MH pH 7.4) was 2 µg/mL, the “MIC K. pneumoniae OXA-48, 12.5% MHB” value (K. pneumoniae OXA-48; carbapenem-resistant, 12.5% MHB pH 7.4, 16–20 h at 37 °C) was 1–2/1–2 μg/mL and the “MIC K. pneumoniae OXA-48, full MHB” value (K. pneumoniae OXA-48; carbapenem-resistant, full MHB pH 7.4, 16–20 h at 37 °C) was 1–2/1–2 μg/mL. The “MIC K. pneumoniae OXA-48” value (K. pneumoniae OXA-48; 12.5% MH pH 7.4) was 1 to 2 µg/mL, the “MIC K. pneumoniae OXA-48” value (K. pneumoniae OXA-48; full MH pH 7.4) was 1 to 2 µg/mL and the “MIC E. cloacae, 12.5% MHB” value (E. cloacae; 12.5% MHB pH 7.4, 16–20 h at 37 °C) was 1 to 2 µg/mL. The “MIC E. cloacae, full MHB” value (E. cloacae; full MHB pH 7.4, 16–20 h at 37 °C) was 2 µg/mL, the “MIC E. cloacae” value (E. cloacae; supplement CSV, 12.5% MH pH 7.4) was 1 to 2 µg/mL and the “MIC P. aeruginosa PA14 2P4 (pmrB), 12.5% MHB” value [2, 4] was 1 µg/mL. For the same substance, the “MIC P. aeruginosa PA14 2P4 (pmrB), full MHB” value [2, 5] was 4 µg/mL, the “MIC P. aeruginosa PA14 2P4” value ([2]; 12.5% MH pH 7.4) was 1 µg/mL and the “MIC P. aeruginosa PA14 2P4” value ([2]; full MH pH 7.4) was 4 µg/mL. For the same substance, the “MIC P. aeruginosa PA14, 12.5% MHB” value (P. aeruginosa PA14; 12.5% MHB pH 7.4, 16–20 h at 37 °C, two different duplicate MIC determinations) was 1 µg/mL, the “MIC P. aeruginosa PA14, full MHB” value (P. aeruginosa PA14; full MHB pH 7.4, 16–20 h at 37 °C, two different duplicate MIC determinations) was under 0.5 µg/mL and the “MIC P. aeruginosa PA14” value (P. aeruginosa PA14; 12.5% MH pH 7.4) was 1 µg/mL. For the same substance, the “MIC P. aeruginosa PA14” value (P. aeruginosa PA14; full MH pH 7.4) was under 0.5 µg/mL, the “MIC P. aeruginosa ZEM9A, 12.5% MHB” value (P. aeruginosa ZEM9A; clinical isolate, 12.5% MHB pH 7.4, 16–20 h at 37 °C) was 2 µg/mL and the “MIC P. aeruginosa ZEM9A, full MHB” value (P. aeruginosa ZEM9A; clinical isolate, full MHB pH 7.4, 16–20 h at 37 °C) was over 64 µg/mL. The “MIC P. aeruginosa ZEM9A” value (P. aeruginosa ZEM9A; 12.5% MH pH 7.4) was 2 µg/mL, the “MIC P. aeruginosa ZEM9A” value (P. aeruginosa ZEM9A; full MH pH 7.4) was over 64 µg/mL and the “MIC P. aeruginosa ZEM-1A, 12.5% MHB” value (P. aeruginosa ZEM-1A; clinical isolate, 12.5% MHB pH 7.4, 16–20 h at 37 °C, cells marked c: single measurement (in duplicates)) was 8 µg/mL. The “MIC P. aeruginosa ZEM-1A, full MHB” value (P. aeruginosa ZEM-1A; clinical isolate, full MHB pH 7.4, 16–20 h at 37 °C, cells marked c: single measurement (in duplicates)) was 16 µg/mL, the “MIC P. aeruginosa ZEM-1A” value (P. aeruginosa ZEM-1A; 12.5% MH pH 7.4) was 8 µg/mL and the “MIC P. aeruginosa ZEM-1A” value (P. aeruginosa ZEM-1A; full MH pH 7.4) was 16 µg/mL. The “MIC P. aeruginosa PA14 4.13 (phoQ), 12.5% MHB” value [3, 4] was 2/2 μg/mL, the “MIC P. aeruginosa PA14 4.13 (phoQ), full MHB” value [3, 5] was 2/2 μg/mL and the “MIC P. aeruginosa PA14 4.13” value ([3]; 12.5% MH pH 7.4) was 2 µg/mL. The “MIC P. aeruginosa PA14 4.13” value ([3]; full MH pH 7.4) was 2 µg/mL, the “MIC K. pneumoniae, 12.5% MHB” value (K. pneumoniae NCTC 418; K. pneumoniae NCTC 418, 12.5% Müller–Hinton medium, 16–20 h at 37 °C) was 1 µg/mL and the “MIC K. pneumoniae, Full MHB” value (K. pneumoniae NCTC 418; K. pneumoniae NCTC 418, full Müller–Hinton medium, 16–20 h at 37 °C) was 0.5 µg/mL. The “MIC K. pneumoniae NCTC418” value (K. pneumoniae NCTC 418; 12.5% MH pH 7.4) was 1 µg/mL, the “MIC K. pneumoniae NCTC418” value (K. pneumoniae NCTC 418; full MH pH 7.4) was 0.5 µg/mL and the “MIC P. aeruginosa, 12.5% MHB” value (P. aeruginosa PAO1; P. aeruginosa PAO1, 12.5% Müller–Hinton medium, 16–20 h at 37 °C) was 1 µg/mL. For the same substance, the “MIC P. aeruginosa, Full MHB” value (P. aeruginosa PAO1; P. aeruginosa PAO1, full Müller–Hinton medium, 16–20 h at 37 °C) was 0.5 µg/mL, the “MIC P. aeruginosa PAO1” value (P. aeruginosa PAO1; 12.5% MH pH 7.4) was 1 µg/mL and the “MIC P. aeruginosa PAO1” value (P. aeruginosa PAO1; full MH pH 7.4) was 0.5 µg/mL. The “MIC E. coli, 12.5% MHB” value (E. coli W3110; E. coli W3110, 12.5% Müller–Hinton medium, 16–20 h at 37 °C, broth microdilution) was 0.5 µg/mL, the “MIC E. coli, Full MHB” value (E. coli W3110; E. coli W3110, full Müller–Hinton medium, 16–20 h at 37 °C, broth microdilution) was 0.25 µg/mL and the “MIC E. coli W3110” value (E. coli W3110; 12.5% MH pH 7.4) was 0.5 µg/mL. For the same substance, the “MIC E. coli W3110” value (E. coli W3110; full MH pH 7.4) was 0.25 µg/mL, the “MIC A. baumannii, 12.5% MHB” value (A. baumannii ATCC19606; A. baumannii ATCC19606, 12.5% Müller–Hinton medium, 16–20 h at 37 °C) was 0.5 µg/mL and the “MIC A. baumannii, Full MHB” value (A. baumannii ATCC19606; A. baumannii ATCC19606, full Müller–Hinton medium, 16–20 h at 37 °C) was 0.25 µg/mL. The “MIC A. baumannii ATCC19606” value (A. baumannii ATCC19606; 12.5% MH pH 7.4) was 0.5 µg/mL, the “MIC A. baumannii ATCC19606” value (A. baumannii ATCC19606; full MH pH 7.4) was 0.25 µg/mL and the “MIC S. aureus, 12.5% MHB” value (S. aureus COL (MRSA); S. aureus COL (MRSA), 12.5% Müller–Hinton medium, 16–20 h at 37 °C) was >16 / 16 μg/mL. The “MIC S. aureus, Full MHB” value (S. aureus COL (MRSA); S. aureus COL (MRSA), full Müller–Hinton medium, 16–20 h at 37 °C) was >16 / 16 μg/mL, the “MIC S. aureus COL (MRSA)” value (S. aureus COL (MRSA); 12.5% MH pH 7.4) was 16 µg/mL and the “MIC S. aureus COL (MRSA)” value (S. aureus COL (MRSA); full MH pH 7.4) was over 16 µg/mL.
